Test results: a melting point compilation (Tetko et al.; mined from patent text by program, amines drawn as free bases though some values may be those of a salt)

| Structure (SMILES) | melting point [°C] |
| --- | --- |
| Cc1cccc(NC(=O)N(C)Cc2cccc3c2CN(C2CCC(=O)NC2=O)C3=O)c1 (stereo unspecified) | 208 to 210 |
| C[C@@H](n1cnc2cc(N3CCN(C)CC3)c(F)cc2c1=O)[C@](O)(Cn1cncn1)c1ccc(F)cc1F | 106 to 112 |
| CCn1ncc2c3[nH]nc4c3c(nc21)CCc1ccccc1-4 | 229 to 231 |
| C=C1CC(COc2cccc3ccc(C)nc23)(c2ccccc2)OC1=O (stereo unspecified) | 108 to 109 |
| CCc1nn(CCNC(=O)OC(C)(C)C)c(CN)c1Oc1cc(Cl)cc(Cl)c1 | 112 to 114 |
| Cc1nn(C)c(OCC(=O)C(C)(C)CCl)c1C(=O)c1ccc(Cl)cc1Cl | 58 to 60 |
| N#CC1=C2C=CC=c3ccccc3=C2CC=C1 | 109 to 111 |
| COc1ccc(C(=O)Nc2c(C)c(C)c3c(c2C)C(c2ccccc2)C(C)(C)O3)cc1 (stereo unspecified) | 190 to 192 |
| Cc1ccc(C(=O)c2cc3cc(OCc4ccccc4)ccc3[nH]2)cc1 | 199 to 200 |
| O=c1[nH]ncc2[nH]c(-c3ccc(OC(F)F)c(OC4CC4)c3)c(Cl)c12 | 281 to 283 |
| O=[N+]([O-])c1ccc(OCc2ccccc2)c(CO)c1 | 81 to 83 |
| Nc1c(-c2ccc(O)cc2)ncnc1-c1ccc(Cl)cc1Cl | 97.3 to 98.2 |
| CNC(=O)c1ccc(C)c(-n2c(C)cc(OCc3ccccc3CNC(=O)Nc3cc(C(C)(C)C)nn3-c3cccc(OCCO)c3)c(Cl)c2=O)c1 | 168 to 170 |
| CC1(C)c2ccc(C(O)CN3CCN(c4n[nH]c5ccccc45)CC3)cc2C(C)(C)C1O (stereo unspecified) | 104 to 110 |
| CC(C)CCCC(C)CCCC(C)CCCC(C)CCP(=O)(O)O (stereo unspecified) | 69 to 72 |
| O=C(O)CSCc1cc2c(cc1Cc1ccccc1)OCO2 | 99.5 to 100 |
| O=C(O)C=CC(=O)c1cc(Cl)c(Cl)cc1Cl | 177 to 181 |
| CCOCc1nc2c(N)nc3cc(OCc4ccccc4)ccc3c2n1CC(C)(C)NC(C)=O | 202 to 205 |
| CCC(CC)Nc1cc(C)nc2c1nc(C)n2-c1c(C)cc(C)cc1C | 101 to 103 |
| CCCCC(Cn1cncn1)(C(N)=O)c1ccc(Cl)cc1 (stereo unspecified) | 197 to 199 |
| Cc1c[nH]c(-c2ccc(OCC(O)CNC3CC3)cc2)n1 (stereo unspecified) | 150 to 154 |
| COc1ccc(OC)c2c1C[C@@H](O)[C@H](N1CCN(c3cccc(C(F)(F)F)c3)CC1)C2 (relative stereo) | 184 to 187 |
| CCCCN1CCn2c1nc(C(=O)NCc1ccc(F)cc1-n1cnc(C)n1)c(O)c2=O | 214 |
| COc1ccc(C(=O)Nc2ccc(F)cc2)cc1Nc1ccccc1 | 151 to 152 |

| Structure (SMILES) | melting point [°C] |
| --- | --- |
| Cc1oncc1C(=O)N1CCC(O)CC1 | 70.5 to 72.5 |
| Cc1cc(C#N)cnc1N | 198 to 200 |
| O=C([C@@H]1CSCN1C(=O)c1ccncc1)N1CCSC1 | 120 to 123 |
| CCN1CCN(c2nc(-c3ccccc3)nc3sc(C#N)c(C)c23)CC1 | 178 to 179 |
| COc1c(NS(=O)(=O)c2ccccc2)cccc1C(=O)Nc1ccccc1 | 190 to 194 |
| CN(C)C(=O)C(=O)N1CN(C(=O)c2c(F)cccc2F)C(=O)N(c2ccc(Oc3ccc(C(F)(F)F)cc3Cl)cc2F)C1 | 98 to 100 |
| CN(C)CCCN(C=O)C1CCC2C3CCc4ccccc4C3CCC21C (stereo unspecified) | 123 to 125 |
| COc1ccc2[nH]c(SCc3ncc(Br)c(N4CCCCC4)c3C)nc2c1 | 90 to 92 |
| COC(=O)c1cccc(CN2CCN(c3nc(C)c(C(C)=O)s3)C2=O)c1 | 122 to 124 |
| COc1ccc(CNC(=O)c2cc([N+](=O)[O-])ccc2N[C@H]2CC[C@@H](OC(C)=O)CC2)cc1OC | 147 to 148 |
| O=c1c(Br)c(SCc2ccccc2)ccn1Cc1ccccc1 | 181 to 182 |
| CN(C)c1ccc(CC(=O)N2CCC(c3[nH]nc4c3C(=O)c3c(NC(=O)NN5CCOCC5)cccc3-4)CC2)cc1 | 107 to 109 |
| CN1CCN(c2ccccc2C=C2SCCN(c3ccc(Cl)c(Cl)c3)C2=O)CC1 | 155 to 157 |
| C=C1c2cccc(NC(=O)c3c(Cl)cccc3Cl)c2OC1(C)OC (stereo unspecified) | 208 to 210 |
| O=Cc1ccc(OCC(F)(F)F)c(O)c1 | 133 to 135 |
| Cc1cnc(CNC(=O)c2sc(N3C[C@@H](C)N(Cc4cc(F)cc(F)c4)C3=O)nc2C)cn1 | 131 to 132 |
| O=[N+]([O-])c1c(NCCCO)cc(Cl)cc1NCCCO | 127 |
| CC(=O)OC1C(Oc2cc(C)cc(O)c2C(=O)CCc2ccc3occc3c2)OC(CO)C(O)C1OC(C)=O (stereo unspecified) | 151 to 153 |
| Oc1ccc(-c2nnc(CSCCOc3ccccc3)s2)cc1 | 127 to 128 |
| CNC1CN(c2c(F)cc3c(=O)c(C(=O)O)cn(C4CC4)c3c2F)C1 | 270 to 272 |
| CC(C)(C)OC(=O)N1CCC(c2nc3cc(-c4ccc(-n5cnnn5)cc4F)ccc3o2)CC1 | 203 to 207 |
| Cc1ccc(C)c(OCc2ccccc2C(=O)c2ccnn2C)c1 | 88 to 89 |
| O=C(c1ccc(Cl)cc1)c1cccc(CBr)c1 | 123 to 125 |
| COc1ccc(C(=O)Nc2ccccc2CCC2CCCCN2C)cc1 (stereo unspecified) | 127 to 128 |

| Structure (SMILES) | melting point [°C] |
| --- | --- |
| NC(=O)C1CCc2cc(C3CCCCCC3)c(Cl)cc21 (stereo unspecified) | 170 to 171 |
| O=c1[nH]c2ccc(Cl)cc2n1CCCCl | 122 |
| Nc1cc(Oc2ccc3c(C(=O)Nc4ccc(F)c(C(F)(F)F)c4)nccc3c2)ncn1 | 219 to 222 |
| COc1ccc(N2CCOCC2)c2sc(NC(=O)N3CC4CCC3CO4)nc12 (stereo unspecified) | 164 to 170 |
| CCOC(=O)N1CCc2c(sc3nc(-c4ccc(F)cc4)cn23)C1 | 164 to 166 |
| CN1CCC(c2c[nH]c3ccc(OS(=O)(=O)c4ccc(I)cc4)cc23)CC1 | 174 to 176 |
| c1ccc(-c2cc(-c3csc(Nc4ccccn4)n3)on2)cc1 | 211 to 215 |
| COc1ccc(C2Sc3ccccc3N(CC(N)=O)C(=O)C2NC(=O)c2ccc3ccccc3c2)cc1 (stereo unspecified) | 243 to 245 |
| Cc1ccc(OC2COc3ccc(OCc4ccc5ccccc5n4)cc3C2O)cn1 (stereo unspecified) | 134 to 136 |
| CC(C)(C)c1cc(N=Nc2cc(Cl)ccc2Cl)c(O)c(C(C)(C)C)c1 | 121 to 126 |
| COc1ccc(C#N)c(ON=C(C)C)c1 | 78 to 79 |
| Cc1ncccc1CN(CCn1cc(C)c2occc2c1=O)Cc1ccc2c(c1)N(CC(C)C)C(=O)C(C)(C)C(=O)N2 | 206 to 208 |
| CCCCOCCOc1ccc(-c2ccc(N3CC(C)C(C)C3)c(C=C(C)C(=O)O)c2)cc1 (stereo unspecified) | 126 to 128 |
| Cn1cnc(COc2nn3c(-c4ccccc4)nnc3c(Cl)c2N2CCCC2)n1 | 198 to 199 |
| Oc1ccnc2cc(Cl)c(F)cc12 | > 300 |
| CCOC(=O)CCCCCCOc1ccc(OCc2ccccc2)cc1 | 57 to 61 |
| CC(C)c1sc(C(O)(C(F)(F)F)C(F)(F)F)nc1-c1ccc(S(C)(=O)=O)cc1 | 122 to 123 |
| COc1ccc(S(=O)(=O)N2CCc3cccc(-c4ccc(N)cc4)c32)cc1 | 184 to 186 |
| Cc1c(SCCCSCCn2c([N+](=O)[O-])cnc2C)ccnc1CNc1ncncc1Cl | 119 to 121 |
| C=CCSc1cc(C(=O)O)cc(S(=O)(=O)Cl)c1Oc1ccccc1 | 160 to 162 |
| CCCc1c(OCCCOc2ccc(C(=O)O)cc2Br)ccc(C(C)=O)c1OC(C)=O | 125 to 127 |
| COC(=O)COc1ccc(SCc2cc(-c3ccc(C(F)(F)F)cc3)on2)c2c1CCCO2 | 112 to 113 |
| O=C(Nc1ccccc1)c1cccc(Nc2ccccc2)c1 | 134 to 135 |
| C=CCCOc1ccc2c(c1)C(=O)c1cc3ccccc3cc1C2=O | 149 |

| Structure (SMILES) | melting point [°C] |
| --- | --- |
| CCCc1c(OCCCCc2nnn[nH]2)ccc(C(C)=O)c1O | 114 to 115 |
| CC(=O)N1CCN(c2ccc(Nc3nccc(-c4sc(Nc5ccccc5)nc4C)n3)cc2)CC1 | 245 to 246 |
| COC1OCC2C(O)C3CCCCC3CC12 (stereo unspecified) | 75 to 77 |
| N#Cc1cnc2cc(-c3ccc(CO)cc3)sc2c1Nc1ccc(Oc2ccccc2)cc1 | 225 to 228 |
| CCOC(=O)C(=CNn1cnnc1)C(=O)c1cc(F)c(F)cc1F | 239 to 240 |
| Cn1cncc1C(O)(c1ccc2c(c1)OCCO2)c1ccc2[nH]c(=O)nc(-c3cccc(Cl)c3)c2c1 (stereo unspecified) | > 260 |
| C=CCOc1ccc(Cl)cc1C(=O)OC | 25 to 26 |
| COc1ccc(CCCN2CCc3cc(O)ccc3C2)cc1 | 163 to 164 |
| CN1CCN(c2cccc3c2C[C@H](NC(=O)c2ccc(N4CCSCC4)cc2)CC3)CC1 | 190 to 191 |
| O=c1[nH]c2ncc(-c3ccc(O)cc3)nc2n1CC1CCCN1 (stereo unspecified) | 178 to 180 |
| CCCCOc1c(CN2C(=O)c3ccccc3C2=O)n(CC2CC2)c(=O)c2ccc(OCc3ccccc3)cc12 | 127 to 128 |
| CCOC(=O)c1coc2c(OC)ccc(C(=O)Cc3c(Cl)cncc3Cl)c12 | 142 to 143 |
| Nc1nc(-c2cc(Cl)ccc2Cl)nc(N2CCNCC2)n1 | 163 to 165 |
| O=C(O)c1ccc(Cc2cc3cc(C(F)(F)F)ccc3n2S(=O)(=O)c2cccc(C3CC3)c2)cc1 | 147 |
| Oc1cc(Br)c2oc(-c3ccc(O)c(C(F)(F)F)c3)nc2c1 | 183 to 185 |
| CCC(CC)Oc1cc(C)nc(Nc2c(C)cc(C)cc2C)c1C#N | 105 to 107 |
| COc1cc(OC)cc(N2CCN(C(=O)Nc3nc(C)c(C)nc3OC)CC2)c1 | 136 to 137 |
| CNC(=O)c1ccc(CCN2CC=C(c3c[nH]c(-c4ccc(F)cc4)c3-c3ccncc3)CC2)cc1 | 231 to 233 |
| N=C1N(Cc2ccc(Cl)nc2)CCN1[N+](=O)[O-] | 81 |
| COc1ccc(/C=C/C(=O)Nc2ccccc2C(=O)OCC(=O)O)cc1OC | 206 to 209 |
| CCOC(=O)C(C)(C)Oc1ccc(OCCn2c(=O)sc3cc(C(=O)c4ccccc4)ccc32)cc1 | 120 to 121 |
| O=[N+]([O-])c1ccc(CS(=O)(=O)NCCc2ccccc2)cc1 | 101 to 103 |
| N#CC(C#N)=C(N)NCCCc1ccccc1 | 165 to 167 |
| COC(=O)CS(=O)C(C)c1ccc(-c2ccccc2F)cc1 (stereo unspecified) | 79 |
